In paper PMC9293909 (Nature Communications, 2022):
Where “and” joins values, the source holds several entries; their conditions need not be identical. Equal values may be shown once. Read-outs that look alike come from different tables or passages of the source. Each block holds one molecule with its values, some of them ahead of it.

What was measured:
[1] = test system: heart rate and mean arterial blood pressure; assay: Urethane-anaesthetised rat, heart rate and arterial blood pressure
From the text: Anaesthesia was induced in adult male Sprague–Dawley rats (230-330 g) with isofluorane (2–4%; Piramal Healthcare). The femoral vein was catheterised for drug delivery. Anaesthesia was maintained with urethane (1.2–1.7 g kg^−1; Sigma) in sterile saline delivered via the femoral vein catheter. […] The trachea was cannulated and the femoral artery catheterised, and both were connected to pressure transducers (Digitimer) to record respiratory airflow and arterial blood pressure, respectively. Blood pressure and airflow signals were amplified using the NeuroLog system (Digitimer) connected to a micro1401 interface and acquired on a computer using Spike2 software (v7.08a; Cambridge Electronic Design). […] Airflow measurements were used to calculate: tidal volume (VT; mL; pressure sensors were calibrated with a 3 mL syringe), and respiratory frequency (f; breaths min^−1; BrPM). Minute ventilation (VE; mL min^−1) was calculated as f × VT.
Cardiovascular and respiratory parameters were allowed to stabilise before experiments began. A1R agonists were administered by intravenous (IV) injection and the changes in HR, MAP, f, VT, and VE were measured. […] All injections were administered IV as a 350 µl·kg^-1 bolus.

respiration (f, VT, VE) = assay: Urethane-anaesthetised rat, respiration
Description: The femoral vein was catheterised for drug delivery.
Adult male Sprague–Dawley rats (400-500 g) were anaesthetised with urethane and instrumented as described above, with the exception that the arterial cannulation was not performed.
Changes in f, VT, and VE were measured. If the dosing occurred close to a respiratory event such as a sigh a second IV dose was administered, with 20 min recovery periods either side of the injection.

WT hA1R = molecular target: T1, WT hA1R (Homo sapiens, UniProt P30542); assay: cAMP inhibition, Flp-In-CHO wild-type hA1R; type: cell-based; conditions: Fig4j
T1 construct: expressed in transfected cells
T1 sequence (P30542 whole entry): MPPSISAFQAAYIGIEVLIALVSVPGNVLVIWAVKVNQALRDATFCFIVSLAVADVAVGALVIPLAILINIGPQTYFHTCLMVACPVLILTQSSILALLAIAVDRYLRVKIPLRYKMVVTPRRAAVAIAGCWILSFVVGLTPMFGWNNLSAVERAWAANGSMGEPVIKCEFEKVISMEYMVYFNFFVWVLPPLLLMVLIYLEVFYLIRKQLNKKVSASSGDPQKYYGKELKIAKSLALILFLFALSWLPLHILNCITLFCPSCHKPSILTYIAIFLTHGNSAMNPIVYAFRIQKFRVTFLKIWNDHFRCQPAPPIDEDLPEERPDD
From the text: (§1) Cell lines were maintained using standard subculturing routines as guided by the European Collection of Cell Culture (ECACC) and checked annually for mycoplasma infection using an EZ-PCR mycoplasma test kit from Biological Industries (Kibbutz Beit-Haemek, Israel). To investigate the signalling properties of the rat A3R (rA3R) and mutants of the human A1R (hA1R), stable cell lines were generated using Flp-In-CHO cells (ThermoFisher - R75807). Untagged hA1R from sigNanoLuciferase (Nluc)-A1R in pcDNA3.1+ and untagged rA3R from sigNluc-A3R in pcDNA3.1 + (both gifted by Dr Steve Briddon (University of Nottingham)) were cloned into the pcDNA5/FRT expression vector (Thermo Fisher Scientific). Mutations within the hA1R were made using the QuikChange Lightening Site-Directed Mutagenesis Kit (Agilent Technologies) in accordance with the manufacturer’s instructions. Constructs for generating Goa/b interfering and scrambled peptides were generated by PCR and cloned into the BamHI/HindIII site of pcDNA3.1- as described in Gilchrist et al.[60],. Prior to the initiator codon a Kozak sequence was included for enhanced translation. The peptide sequences used were: for Goa […], for Gob […], and for the scrambled peptide […] was used. Constructs were sequenced to confirm fidelity. […]

[2] = molecular target: T2, hA1R R291^7.56 alanine mutant (Homo sapiens, UniProt P30542, R291A); assay: cAMP inhibition, Flp-In-CHO hA1R R291A; type: cell-based; conditions: Fig4j
T2 construct: expressed in transfected cells
T2 sequence (P30542 whole entry R291A): as the sequence (P30542 whole entry) above, with R291A counted along it
From the text: as §1

hA1R:Goa = molecular target: T3, hA1R:Goa (Homo sapiens, UniProt P30542); assay: TRUPATH G protein dissociation BRET assay, Goa; type: cell-based; conditions: Fig2h
T3 construct: cDNA resource centre (pcDNA3.1-A1R)
T3 sequence (P30542 whole entry): as the sequence (P30542 whole entry) above
T3 sequence (P09471 2-354 partner limits assumed): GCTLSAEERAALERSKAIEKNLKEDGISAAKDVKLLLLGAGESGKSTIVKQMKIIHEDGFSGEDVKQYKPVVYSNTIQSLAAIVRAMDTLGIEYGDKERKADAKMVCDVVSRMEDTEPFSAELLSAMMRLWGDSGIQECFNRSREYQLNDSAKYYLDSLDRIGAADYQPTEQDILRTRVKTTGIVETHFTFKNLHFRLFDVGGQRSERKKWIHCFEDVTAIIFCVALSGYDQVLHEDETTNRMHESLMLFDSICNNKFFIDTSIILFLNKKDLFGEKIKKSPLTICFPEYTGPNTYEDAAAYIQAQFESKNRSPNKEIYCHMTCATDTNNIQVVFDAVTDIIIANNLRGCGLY
T3 sequence (P16520 whole entry partner): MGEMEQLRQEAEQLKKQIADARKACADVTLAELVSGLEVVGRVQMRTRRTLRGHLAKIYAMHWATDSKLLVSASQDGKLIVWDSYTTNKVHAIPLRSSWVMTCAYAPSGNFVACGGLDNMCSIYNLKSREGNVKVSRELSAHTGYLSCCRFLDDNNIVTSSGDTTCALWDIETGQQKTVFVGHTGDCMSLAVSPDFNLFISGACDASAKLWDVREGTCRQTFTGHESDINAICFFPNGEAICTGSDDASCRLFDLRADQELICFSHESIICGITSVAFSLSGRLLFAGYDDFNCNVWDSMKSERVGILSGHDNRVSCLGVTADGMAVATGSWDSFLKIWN
T3 sequence (Q9UK08 1-67 partner limits assumed): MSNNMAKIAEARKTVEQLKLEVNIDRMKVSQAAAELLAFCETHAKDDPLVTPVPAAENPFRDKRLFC
Description: Cells were plated in a density of 1,500,000 cells/well in a 6-well plate and grown in DMEM /F-12 GlutaMAX™ media (Thermo Fisher Scientific, UK) supplemented with 10% FBS (Sigma, UK) and 1% AA (Sigma, UK). After being grown overnight, cells in each well were transfected using polyethylenimine 25 kDa (PEI, Polysciences Inc., Germany) at a 6:1 ratio of PEI to DNA, diluted in 150 mM NaCl. […] Gɑ (either Goa-RLuc8, or Gob-RLuc8), Gβ3 and Gγ8-GFP2 constructs were purchased as part of the TRUPATH sensor kit from Addgene, pcDNA3.1-A1R was obtained from cDNA resource centre, and pcDNA3.1 (-) zeo was purchased from Invitrogen. After 24 h, cells were trypsinised and re-seeded onto poly-L-lysine (PLL)-coated white 96-well plates (Greiner, UK) at the density of 50,000 cells/well in a complete DMEM/F-12 medium. After grown overnight, the culture media was discarded and replaced with 80 μl assay buffer (1× Hank’s balanced salt solution (HBSS) with calcium, supplemented with 20 mM HEPES and 0.1% BSA at pH 7.4). The assay was started by adding 10 μl of coelenterazine 400a (Nanolight technology, USA) to a final concentration of 5 μM. The plates were then incubated in the dark for 5 min, prior to the addition of 10 μl compounds (in a range of 0.01 nM – 1 µM). […] BRET signal was recorded for 30 min on a Mithras LB940 plate reader allowing sequential integration of signal detected from GFP2 and Rluc8.

hA2AR = molecular target: T4, hA2AR (Homo sapiens, UniProt P29274); assay: cAMP accumulation at hA2AR; type: cell-based
T4 construct: expressed in transfected cells; host or cells: CHO-K1
T4 sequence (P29274 whole entry): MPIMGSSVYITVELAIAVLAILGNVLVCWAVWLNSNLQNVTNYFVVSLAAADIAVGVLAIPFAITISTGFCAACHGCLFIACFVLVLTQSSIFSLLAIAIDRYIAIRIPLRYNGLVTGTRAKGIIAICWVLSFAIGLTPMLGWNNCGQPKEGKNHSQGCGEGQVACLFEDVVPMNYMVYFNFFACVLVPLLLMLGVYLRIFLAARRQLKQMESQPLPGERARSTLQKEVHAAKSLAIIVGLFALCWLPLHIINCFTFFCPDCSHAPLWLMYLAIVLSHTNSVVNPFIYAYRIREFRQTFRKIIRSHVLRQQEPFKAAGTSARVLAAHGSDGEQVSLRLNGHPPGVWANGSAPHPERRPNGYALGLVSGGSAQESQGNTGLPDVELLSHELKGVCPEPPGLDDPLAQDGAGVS
Description: CHO cell lines expressing ARs of interest (including mutants of the hA1R) were routinely cultured in Ham’s F-12 nutrient mix supplemented with 10% foetal bovine serum (FBS), at 37 °C with 5% CO2, in a humidified atmosphere.

[3] = Fig6g, average, n 4, CPA alone or CPA + BnOCPA
[4] = Fig6g, individual animal, CPA alone or CPA + BnOCPA

SMILES: OC[C@H]1O[C@@H](n2cnc3c(NC4CCCC4)ncnc32)[C@H](O)[C@@H]1O [CPA, N^6-Cyclopentyladenosine]
reduction of HR ([1]; CPA 6 µg kg^−1 IV): ~ 50% | MAP after injection ([1]; CPA 6 µg kg^−1 IV, from 83 ± 8 mm Hg): 51 ± 5 mm Hg | HR after injection ([1]; CPA 6 µg kg^−1 IV, from 408 ± 17 BPM): 207 ± 29 BPM | effect on HR (difference from previous baseline) ([1]; CPA 6 µg kg^−1 alone): 179 ± 15 bpm | heart rate ([1]; Fig5c, individual rat): 165 and 289 and 168 and 205 | heart rate, Average ([1]; Fig5c, n 4): 207 | HR, Average [1, 3]: -179 | MAP, Average [1, 3]: -55 | HR [1, 4]: -182.8 and -157 and -220 and -158 | MAP [1, 4]: -64 and -74 and -31 and -50 | mean arterial blood pressure ([1]; Fig5d, individual rat): 49 and 64 and 40 | mean arterial blood pressure, Average ([1]; Fig5d, n 4): 51 | tidal volume VT after injection (respiration (f, VT, VE); CPA 6 µg kg^−1 IV, resting 1.1 ± 0.1): 0.8 ± 0.1 mL | respiratory frequency f after injection (respiration (f, VT, VE); CPA 6 µg kg^−1 IV, resting 143 ± 11): 108 ± 10 BrPM | minute ventilation VE after injection (respiration (f, VT, VE); CPA 6 µg kg^−1 IV, resting 155 ± 28): 99 ± 19 mL/min | effect on Freq (difference from previous baseline) (respiration (f, VT, VE); CPA 6 µg kg^−1 alone): 52 ± 8 breaths/min | effect on VE (difference from previous baseline) (respiration (f, VT, VE); CPA 6 µg kg^−1 alone): 59 ± 9 mL/min | Frequency (respiration) (respiration (f, VT, VE); Fig6b, individual rat): 97.7 and 153.2 and 77.8 and 92.8 and 134.8 and 131.4 and 100.3 and 76.5 | Frequency (respiration), Average (respiration (f, VT, VE); Fig6b, n 8): 108.1 | VT (respiration (f, VT, VE); Fig6c, individual rat): 1 and 1.31 and 0.72 and 0.49 and 0.42 and 0.81 and 1.39 | VT, Average (respiration (f, VT, VE); Fig6c, n 8): 0.82 | Freq, Average (respiration (f, VT, VE); [3]): -52 | VE, Average (respiration (f, VT, VE); [3]): -59 | VT, Average (respiration (f, VT, VE); [3]): -0.065 | Freq (respiration (f, VT, VE); [4]): -58 and -41 and -36 and -72 | VE (respiration (f, VT, VE); [4]): -86 and -53 and -48 and -49 | VT (respiration (f, VT, VE); [4]): -0.31 and 0.1 and -0.15 | VE (respiration (f, VT, VE); Fig6d, individual rat): 110 and 203 and 69 and 42 and 63 and 139 and 46 and 116 | VE, Average (respiration (f, VT, VE); Fig6d, n 8): 99

IC50 (WT hA1R; individual replicate, read-out: cAMP inhibition potency, WT (converted)): 0.971 nM and 1.09 nM and 1.91 nM and 1.17 nM | IC50 (WT hA1R; read-out: cAMP inhibition potency, WT, Average (converted)): 1.23 nM | IC50 ([2]; individual replicate, read-out: cAMP inhibition potency, 291A (converted)): 1.66 nM and 3.36 nM and 11.1 nM and 7.67 nM and 1.61 nM and 5.5 nM and 3.5 nM | IC50 ([2]; read-out: cAMP inhibition potency, 291A, Average (converted)): 3.98 nM | EC50 (hA1R:Goa; individual replicate, read-out: TRUPATH Goa potency (converted)): 64.6 nM and 83.2 nM and 81.3 nM and 37.2 nM and 27.5 nM and 44.7 nM and 30.2 nM | EC50 (hA1R:Goa; n 8, read-out: TRUPATH Goa potency, Average (converted)): 45.7 nM | EC50 (hA2AR; half-maximal response, cAMP, read-out: pEC50 hA2AR (converted)): 3240 nM | Range hA2AR (hA2AR; range of response as percentage of response to 10 μM forskolin): 41.66 ± 6.1%
SMILES: OC[C@H]1O[C@@H](n2cnc3c(N[C@@H]4CCC[C@H]4O)ncnc32)[C@H](O)[C@@H]1O [HOCPA, (2 R,3 R,4 S,5 R)−2-(6-{[(1 R,2 R)−2-hydroxycyclopentyl]amino}−9H-purin-9-yl)−5-(hydroxymethyl)oxolane-3,4-diol]
